The values that follow come from patent publication US9902735B2, “Heteroaryl substituted compounds as RORγ inhibitors” (GlaxoSmithKline Intellectual Property Developement Limited, priority 2014, dated 2018).

Experiment [1] concerns the target T1, Human RORγ Ligand Binding Domain (RORγ-LBD) (Homo sapiens, UniProt P51449).
T1 construct: made in house; host or cells: E. coli BL21(DE3)
T1 sequence (P51449 263-518): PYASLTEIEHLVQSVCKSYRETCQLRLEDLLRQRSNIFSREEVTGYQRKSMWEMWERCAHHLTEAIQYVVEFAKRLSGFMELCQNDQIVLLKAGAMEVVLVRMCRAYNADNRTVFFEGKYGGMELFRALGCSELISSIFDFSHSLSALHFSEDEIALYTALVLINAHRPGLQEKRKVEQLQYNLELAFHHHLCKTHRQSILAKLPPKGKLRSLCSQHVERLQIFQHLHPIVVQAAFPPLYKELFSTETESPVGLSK
Nature of the experiment: Dual Fluorescence Energy Transfer (FRET) assay. The class given is biochemical. Particulars: mean of multiple test results if tested more than once; read-out: pIC50 in the dual FRET assay (converted). An excerpt: This assay is based on the knowledge that nuclear receptors interact with cofactors (transcription factors) in a ligand dependent manner. RORγ is a typical nuclear receptor in that it has an AF2 domain in the ligand binding domain (LBD) which interacts with co-activators. The sites of interaction have been mapped to the LXXLL motifs in the co-activator SRC1(2) sequences. Short peptide sequences containing the LXXLL motif mimic the behavior of full-length co-activator.
The assay measures ligand-mediated interaction of the co-activator peptide with the purified bacterial-expressed RORγ ligand binding domain (RORγ-LBD) to indirectly assess ligand binding. RORγ has a basal level of interaction with the co-activator SRC1(2) in the absence of ligand, thus it is possible to find ligands that inhibit or enhance the RORγ/SRC1(2) interaction.
Human RORγ Ligand Binding Domain (RORγ-LBD) was expressed in E. coli strain BL21(DE3) as an amino-terminal polyhistidine tagged fusion protein. DNA encoding this recombinant protein was sub-cloned into a modified pET21a expression vector (Novagen). […]
Approximately 50 g E. coli cell pellet was resuspended in 300 mL of lysis buffer (30 mM imidazole pH 7.0 and 150 mM NaCl). […] After washing to baseline absorbance with the equilibration buffer, the column was developed with a gradient from 30 to 500 mM imidazole pH 7.0. […]

For experiment [2], the target named is T2, RORγ-LBD (Homo sapiens, UniProt P51449).
T2 construct: adding an appropriate amount of biotinylated RORγ-LBD and APC-labeled streptavidin
T2 sequence (P51449 269-508 limits assumed): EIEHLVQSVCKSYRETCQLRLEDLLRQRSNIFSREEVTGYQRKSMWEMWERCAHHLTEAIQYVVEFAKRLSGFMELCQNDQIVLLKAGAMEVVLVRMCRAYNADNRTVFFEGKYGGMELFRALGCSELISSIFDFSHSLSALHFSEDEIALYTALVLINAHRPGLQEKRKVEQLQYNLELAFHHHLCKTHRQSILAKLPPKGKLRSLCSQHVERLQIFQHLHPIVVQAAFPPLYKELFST
Nature of the experiment: Fluorescence Energy Transfer (FRET) assay. The class given is biochemical. Particulars: mean of multiple test results if tested more than once; read-out: pIC50 in the FRET assay (converted). How it is done:
The assays were performed in an assay buffer consisting of 50 mM NaF, 50 mM 3-(N-morpholino)propanesulfonic acid, pH 7.5, 50 μM 3-[(3-cholamidopropyl)dimethylammonio]-propanesulfonate, 0.1 mg/mL bovine serum albumin, and 10 mM dithiothreitol in 384-well plates (Greiner 784076, Longwood, Fla.). The total volume was 10 μL/well. The europium-labeled SRC1 solution was prepared by adding an appropriate amount of biotinylated SRC and europium labeled streptavidin (PerkinElmer Life and Analytical Sciences, Waltham, Mass.) into assay buffer, with final concentrations of 27 and 3.3 nM, respectively. The allophycocyanin (APC)-labeled-LBD solution was prepared by adding an appropriate amount of biotinylated RORγ-LBD and APC-labeled streptavidin (CR130-100; PerkinElmer Life and Analytical Sciences) at a final concentration of 33 nM each. After 15 min of incubation at room temperature, a 20-fold excess of biotin was added to block the remaining free streptavidin. […] The plates were incubated for 1 h at room temperature and then read on ViewLux (PerkinElmer Life and Analytical Sciences) in LANCE mode configured for europeum-APC labels. Data were collected and analyzed by Activitybase.

With `Cc1ncc(C(=O)Nc2cc(Cl)cc(CN3CCN(C(=O)CC4CC4)[C@@H](C)C3)c2C)cc1F` [Example 80, (S)—N-(5-chloro-3-((4-(2-cyclopropylacetyl)-3-methylpiperazin-1-yl)methyl)-2-methylphenyl)-5-fluoro-6-methylnicotinamide], the IC50 in experiment [1] was roughly 100 nM; in experiment [2], roughly 50.1 nM.
